Data: patent publication US20260109721A1, “IONIZABLE CATIONIC LIPIDS INCORPORATING SILICON: SYNTHESIS AND LNP FORMULATION” (priority 2023, published 2026)

Columns and labels:
[1] = tested on: HeLa cells; experiment: Cell viability assessment with resazurin assay (Method A); type: cell-based; settings: human
Procedure: (§1) The synthesized lipids were tested in term of in vitro transfection efficacy and toxicity on HeLa cells. In order to perform the mentioned biological tests, appropriate LNPs had to be formulated from the synthesized lipids. The formulation technique was different in Method A and B. The particle size, polydispersity index (PDI) and zeta potential of resulting LNPs were determined by means of Dynamic Light Scattering technique (DLS). Prior to biological testing the encapsulation efficiency (EE) of the loaded LNPs was determined by using RiboGreen RNA assay. In case of Method A Luc mRNA while in case of Method B GFP mRNA was transfected into the cells. In parallel with the transfection experiments, toxicity of the investigated LNPs was determined, in case of Method A resazurin assay while in case of Method B MTT assay was used. Additionally, the toxicity of the lipids was investigated on HepG2 cells and IC50 values were determined.
This protocol is used to determine the metabolic activity of cells as a measure for cell viability after exposure to potentially toxic substances. Resazurin is converted in mitochondria by reduction to resorufin, which has a much higher fluorescence at ˜600 nm compared to unconverted resazurin. A lower amount/percentage of conversion is correlated with reduced cellular metabolism and indirectly to cellular death and toxicity. Care must be taken with interpretation of the read-out, as 50% reduction in resazurin conversion may mean 50% reduction of cellular metabolism of 100% alive cells, or 50% of cells dead, and any combination in between.
• 1. Prepare 0.25 mg/ml stock solution resazurin in fresh cell culture medium. Resazurin is auto-reducing over time in solution, especially in medium, and fresh stocks should be prepared every 2-3 days. Stocks should be stored at 4° C. and protected from light. For HeLa cells, DMEM/F12 with 10% FCS is used. • 2. Dilute stock solution 10× in fresh cell culture medium to 0.025 mg/ml->ready for application on cells. For HeLa cells, DMEM/F12 with 10% FCS is used. • 3. Collect 96-well plate and replace cell-culture spent medium with 100 μl per well resazurin solution. Add some resazurin solution for background measurement in wells not containing cells. • 4. Incubate for 50 minutes in incubator at 37° C., 5% CO2, 95% RH. • 5. Transfer resazurin solution to a fresh 96- or 384-well plate. • 6. Measure in plate reader using 540/25 nm (excitation) and 610/40 nm (emission) using standard settings (PTM low/OD-1.0). • 7. Subtract the average background measurement from all samples. Set the average of the negative controls (well receiving OptiMEM only during transfection) to 100% and express all values as percentage of the control activity. Typically, at lower levels of treatment, elevation of metabolic activity is shown, whereas for toxic substances, at toxic concentrations sigmoidal curves can be obtained, with lower activity indicating higher toxicity.

[2] = tested on: HeLa cells; experiment: Transfection efficiency with Luciferase (SecNLuc) mRNA, Nano-Glo assay (Method A); type: cell-based; settings: Luc mRNA, 24 h, luminescence; for Transfection 10 ng mRNA: 10 ng mRNA/well; for Transfection 50 ng mRNA: 50 ng mRNA/well; for Transfection 100 ng mRNA: 100 ng mRNA/well
Procedure: as §1
• 1. Prepare mRNA solution by adding 100 ng mRNA (SecNLuc, #P009024, RiboPro) to 5 μl Opti-MEM • multiply by number of wells, include different concentrations and add 10% extra • a standard set-up we use is 100 ng-50 ng-10 ng mRNA/well in triplicate, which would need […] mRNA (includes 10% extra)
• 2. (If applicable) Prepare different concentrations in Opti-MEM (for instance 100/50/10 ng). • 3. Add 10 μl to each well and mix carefully by pipetting. • 4. Mix by swirling the plate horizontally at modest speed. Reverse in direction 3 times. • 5. Incubate for 24 hours (incubator).
This protocol is applied to measure luciferase activity for secreted NanoLuc and is based on the protocol by Promega (Nano-Glo® Luciferase Assay System #N1110-1150). The protocol is designed for a 384-wells plate, but volumes can be changed accordingly for other plates.
• 1. Plate cells (HeLa) in 96-well plate, grow until 80% confluent and transfect with SecNanoLuc mRNA and incubate for the desired period (24 h). • 2. After incubation, the translated protein is accumulated in the medium. Transfer medium to a new plate or tubes. • 3. Transfer 12 μl of each sample to a black-walled, clear-bottom 384-well plate • Black-walled plates are important to prevent shine-through of luminescence from other wells; alternatively, multiple wells between samples can be left empty. • 4. Set-up plate reader • 5. Prepare the desired amount of Nano-Glo® Luciferase Assay Reagent by combining one volume of Nano-Glo® Luciferase Assay Substrate with 50 volumes of Nano-Glo® Luciferase Assay Buffer: • a. composition: 100 mM MES pH 6; 1 mM EDTA; […]; 150 mM KCl; 1 mM DTT; 35 mM Thiourea; • b. briefly spin tubes containing substrate in a microcentrifuge before use. • 6. Add and mix (by pipetting) 12 μl Nano-Glo® Luciferase Assay Reagent per well • Wait approximately 3 minutes before measuring luminescence. […] Measure luminescence in plate reader using standard protocol luciferase (this includes mixing sample in plate reader)

Structure (SMILES) | Cell Viability % (Average metabolic rate over all doses, Resazurin) [1] [%] | Transfection 10 ng mRNA [2] | Transfection 50 ng mRNA [2] | Transfection 100 ng mRNA [2]
CCCCCCCC/C=C\CCCCCCCCOC(CC[C@@H](C)C1CCC2C3CCC4C[C@H](OC)CC[C@]4(C)C3CC[C@@]21C)O[Si](C)(C)OCCCCCCN(CCO)CCO (stereo partly drawn) [Example 51, (Z)-3-(2-hydroxyethyl)-13-((3R)-3-((3R,10S,13R)-3-methoxy-10,13-dimethylhexadecahydro-1H-cyclopenta[a]phenanthren-17-yl)butyl)-11,11-dimethyl-10,12,14-trioxa-3-aza-11-siladotriacont-23-en-1-ol] | 92 | 1.05E+04 | 1.70E+05 | 7.44E+05
CCCCC/C=C\C/C=C\CCCCCCCCOC(CC[C@@H](C)C1CCC2C3CCC4C[C@H](OC)CC[C@]4(C)C3CC[C@@]21C)O[Si](C)(C)OCCCCCCN(CCO)CCO (stereo partly drawn) [Example 52, (23Z,26Z)-3-(2-hydroxyethyl)-13-((3R)-3-((3R,10S,13R)-3-methoxy-10,13-dimethylhexadecahydro-1H-cyclopenta[a]phenanthren-17-yl)butyl)-11,11-dimethyl-10,12,14-trioxa-3-aza-11-siladotriaconta-23,26-dien-1-ol] | 95 | 1.02E+05 | 1.65E+06 | 9.16E+06
CCCCC/C=C\C/C=C\CCCCCCCCOC(CCCCCCC/C=C\C/C=C\CCCCC)O[Si](C)(C)OCCCCCCN1CCOCC1 (centres unmarked) [Example 55, 4-((20Z,23Z)-10-((8Z,11Z)-heptadeca-8,11-dien-1-yl)-8,8-dimethyl-7,9,11-trioxa-8-silanonacosa-20,23-dien-1-yl)morpholine] | 91 | 1.32E+06 | 7.68E+06 | 1.03E+07
CCCCC/C=C\C/C=C\CCCCCCCCOC(CCCCCCC/C=C\C/C=C\CCCCC)O[Si](C)(C)OCCCCCCN(C)CCO (centres unmarked) [Example 56, (23Z,26Z)-13-((8Z,11Z)-heptadeca-8,11-dien-1-yl)-3,11,11-trimethyl-10,12,14-trioxa-3-aza-11-siladotriaconta-23,26-dien-1-ol] | 93 | 3.00E+00 | 5.63E+01 | 6.90E+01
CCCCC/C=C\C/C=C\CCCCCCCCOC(CCCCCCC/C=C\C/C=C\CCCCC)O[Si](C)(C)OCCCCCCN1CCCCC1 (centres unmarked) [Example 57, 1-((20Z,23Z)-10-((8Z,11Z)-heptadeca-8,11-dien-1-yl)-8,8-dimethyl-7,9,11-trioxa-8-silanonacosa-20,23-dien-1-yl)piperidine] | 99 | 9.82E+04 | 1.48E+06 | 5.16E+06
CCCCC/C=C\C/C=C\CCCCCCCCOC(CCCCCCC/C=C\C/C=C\CCCCC)O[Si](C)(C)OCCCCCCN1CCN(CCO)CC1 (centres unmarked) [Example 58, 2-(4-((20Z,23Z)-10-((8Z,11Z)-heptadeca-8,11-dien-1-yl)-8,8-dimethyl-7,9,11-trioxa-8-silanonacosa-20,23-dien-1-yl)piperazin-1-yl)ethan-1-ol] | 97 | 3.85E+02 | 3.92E+03 | 7.51E+03
CCCCC/C=C\C/C=C\CCCCCCCCOC(CCCCCCC/C=C\C/C=C\CCCCC)O[Si](C)(C)OCCCCCCN(C)CC(O)CO (centres unmarked) [Example 59, (24Z,27Z)-14-((8Z,11Z)-heptadeca-8,11-dien-1-yl)-4,12,12-trimethyl-11,13,15-trioxa-4-aza-12-silatritriaconta-24,27-diene-1,2-diol] | 90 | 9.07E+03 | 2.41E+05 | 5.66E+05
CCCCC/C=C\C/C=C\CCCCCCCCOC(CCCCCCC/C=C\C/C=C\CCCCC)O[Si](C)(C)OCCCCCCN(C)CCCCO (centres unmarked) [Example 60, (25Z,28Z)-15-((8Z,11Z)-heptadeca-8,11-dien-1-yl)-5,13,13-trimethyl-12,14,16-trioxa-5-aza-13-silatetratriaconta-25,28-dien-1-ol] | 88 | 1.76E+05 | 1.12E+06 | 1.81E+06
CCCCC/C=C\C/C=C\CCCCCCCCOC(CCCCCCC/C=C\C/C=C\CCCCC)O[Si](C)(C)OCCCCCCN(CCCCO)CCCCO (centres unmarked) [Example 62, (25Z,28Z)-15-((8Z,11Z)-heptadeca-8,11-dien-1-yl)-5-(4-hydroxybutyl)-13,13-dimethyl-12,14,16-trioxa-5-aza-13-silatetratriaconta-25,28-dien-1-ol] | 89 | 1.95E+05 | 8.70E+05 | 1.68E+06
CCCCC/C=C\C/C=C\CCCCCCCCOC(CCCCCCC/C=C\C/C=C\CCCCC)O[Si](C)(C)OCCCCCCN1CCCCC1CO (centres unmarked) [Example 64, (1-((20Z,23Z)-10-((8Z,11Z)-heptadeca-8,11-dien-1-yl)-8,8-dimethyl-7,9,11-trioxa-8-silanonacosa-20,23-dien-1-yl)piperidin-2-yl)methanol] | 100 | 3.40E+05 | 1.89E+06 | 3.78E+06
CCCCC/C=C\C/C=C\CCCCCCCCOC(CCCCCN(C)CC(O)CO)O[Si](C)(C)OCCCCCCCC/C=C\C/C=C\CCCCC (centres unmarked) [Example 66, (22Z,25Z)-4,12,12-trimethyl-10-(((9Z,12Z)-octadeca-9,12-dien-1-yl)oxy)-11,13-dioxa-4-aza-12-silahentriaconta-22,25-diene-1,2-diol] | 91 | 1.06E+05 | 1.14E+06 | 3.31E+06
